# Values quoted from earlier work, collected in US6344433B1, “Long-acting disinfectant and its preparation method” (priority 1999, dated 2002).
# Conditions: crystal powder
smiles,measurement,value
"Oc1cc(Cl)ccc1Oc1ccc(Cl)cc1Cl [HD244, 2,4,4′-trichloro-2′-hydroxy diphenyl ether]",solubility in water,hardly soluble in water
